In patent publication US8063048B2, “Acetylenyl-pyrazolo-pyrimidine derivatives” (Hoffmann-La Roche Inc., priority 2005, dated 2011):

Legend:
mGlu2 receptor = biological target: T1, mGlu2 receptor (Rattus norvegicus, UniProt P31421); test: [3H]-LY354740 binding on mGlu2 transfected CHO cell membranes; details: inhibition of 10 nM [3H]-LY354740 binding, membranes of CHO cells transfected with rat mGlu2, room temperature, 1 hour
T1 construct: expressed in transfected cells; membranes prepared
Excerpt: [^3H]-LY354740 Binding on mGlu2 Transfected CHO Cell Membranes. Transfection and Cell Culture
cDNA encoding the rat mGlu2 receptor protein in pBluescript II was subcloned into the eukaryotic expression vector pcDNA I-amp from Invitrogen Ltd (Paisley, UK). This vector construct (pcD1mGR^2) was co-transfected with a psvNeo plasmid encoding the gene for neomycin resistance, into CHO cells by a modified calcium phosphate method described by Chen & Okayama (1988). The cells were maintained in Dulbecco's Modified Eagle medium with reduced L-glutamine (2 mM final concentration) and 10% dialyzed fetal calf serum from Gibco-Invitrogen (Carlsbad, Calif., USA). Selection was made in the presence of G-418 (1000 ug/mL final) and MCPG[…]. Clones were identified by reverse transcription of 5 μg total RNA, followed by PCR using mGlu2 receptor specific primers 5′-[…]-3′ and 5′-[…]-3′ in 60 mM Tris HCl (pH 10), 15 mM (NH4)2SO4, 2 mM MgCl2, 25 units/mLTaq Polymerase with 30 cycles annealing at 60° C. for 1 min., extention at 72° C. for 30 s, and 1 min. 95° C. denaturation.
Cells, cultured as above, were harvested and washed three times with cold PBS and frozen at −80° C. The pellet was resuspended in cold 20 mM HEPES-NaOH buffer containing 10 mM EDTA (pH 7.4) and homogenized with a polytron (Kinematica, AG, Littau, Switzerland) for 10 s at 10 000 rpm. After centrifugation for 30 min. at 4° C., the pellet was washed once with the same buffer, and once with cold 20 mM HEPES-NaOH buffer containing 0.1 mM EDTA, (pH 7.4). Protein content was measured using the micro BCA method from Pierce-Perbio (Rockford, Ill., USA) using bovine serum albumin as standard.
After thawing, the membranes were resuspended in cold 50 mM Tris-HCl buffer containing 2 mM MgCl2 (pH 7) (binding buffer). The final concentration of the membranes in the assays was 25 μg protein/ml. Inhibition experiments were performed with membranes incubated with 10 nM [^3H]-LY354740 at room temperature, for 1 hour, in presence of various concentrations of the compound to be tested. Following the incubations, membranes were filtered onto Whatmann GF/B glass fiber filters and washed 5 times with cold binding buffer. Non specific binding was measured in the presence of 10 μM DCG IV. After transfer of the filters into plastic vials containing 10 mL of Ultima-gold scintillation fluid from Perkin-Elmer (Boston, Mass., USA), the radioactivity was measured by liquid scintillation in a Tri-Carb 2500 TR counter (Packard, Zürich, Switzerland).
The inhibition curves were fitted with a four parameter logistic equation giving IC50 values, and Hill coefficients.

T1 sequence (P31421 19-872): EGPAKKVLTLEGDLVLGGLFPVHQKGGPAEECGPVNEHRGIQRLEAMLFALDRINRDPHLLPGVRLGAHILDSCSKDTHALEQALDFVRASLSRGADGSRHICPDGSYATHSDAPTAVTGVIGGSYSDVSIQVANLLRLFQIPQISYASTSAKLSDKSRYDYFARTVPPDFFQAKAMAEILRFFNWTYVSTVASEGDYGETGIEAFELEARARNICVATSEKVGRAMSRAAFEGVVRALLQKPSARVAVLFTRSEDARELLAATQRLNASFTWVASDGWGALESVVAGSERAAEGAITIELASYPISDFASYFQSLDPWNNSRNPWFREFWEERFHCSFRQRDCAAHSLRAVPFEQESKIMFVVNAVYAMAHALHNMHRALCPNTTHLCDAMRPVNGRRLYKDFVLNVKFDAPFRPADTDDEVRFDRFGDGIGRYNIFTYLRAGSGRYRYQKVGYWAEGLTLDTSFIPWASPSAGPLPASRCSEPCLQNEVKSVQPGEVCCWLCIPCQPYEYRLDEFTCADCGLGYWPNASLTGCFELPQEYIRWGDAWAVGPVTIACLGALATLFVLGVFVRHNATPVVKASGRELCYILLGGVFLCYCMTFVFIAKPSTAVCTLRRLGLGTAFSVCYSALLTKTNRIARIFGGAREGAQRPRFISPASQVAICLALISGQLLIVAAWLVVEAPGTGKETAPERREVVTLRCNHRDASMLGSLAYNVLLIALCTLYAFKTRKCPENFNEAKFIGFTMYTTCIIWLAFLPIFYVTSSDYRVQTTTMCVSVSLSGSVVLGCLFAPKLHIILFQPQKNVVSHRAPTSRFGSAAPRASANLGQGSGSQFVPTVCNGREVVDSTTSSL

| Ki (mGlu2 receptor) | melting point | Compound |
| --- | --- | --- |
| – | 224 to 226 °C | NS(=O)(=O)c1ccc(C#Cc2cnn3ccc(-c4ccc(C(F)(F)F)cc4)nc23)s1 [Example 311, 5-[5-(4-Trifluoromethyl-phenyl)-pyrazolo[1,5-a]pyrimidin-3-ylethynyl]-thiophene-2-sulfonic acid amide] |
| – | 243 to 246 °C | Nc1ncc(C#Cc2cnn3c(C4CC4)cc(-c4ccc(Cl)cc4)nc23)cn1 [Example 313, 5-[5-(4-Chloro-phenyl)-7-cyclopropyl-pyrazolo[1,5-a]pyrimidin-3-ylethynyl]-pyrimidin-2-ylamine] |
| – | 246 to 248 °C | Cc1cc(-c2ccc(C(F)(F)F)cc2)nc2c(C#Cc3cnc(N)nc3)cnn12 [Example 315, 5-[7-Methyl-5-(4-trifluoromethyl-phenyl)-pyrazolo[1,5-a]pyrimidin-3-ylethynyl]-pyrimidin-2-ylamine] |
| – | 280 to 282 °C | Cc1cc(-c2ccc(Cl)cc2)nc2c(C#Cc3cnc(N)nc3)cnn12 [Example 316, 5-[5-(4-Chloro-phenyl)-7-methyl-pyrazolo[1,5-a]pyrimidin-3-ylethynyl]-pyrimidin-2-ylamine] |
| – | 303 to 305 °C | Nc1ncc(C#Cc2cnn3c(C(F)(F)F)cc(-c4ccc(Cl)cc4)nc23)cn1 [Example 317, 5-[5-(4-Chloro-phenyl)-7-trifluoromethyl-pyrazolo[1,5-a]pyrimidin-3-ylethynyl]-pyrimidin-2-ylamine] |
| – | 172 to 174 °C | O=S(=O)(NCCc1ccncc1)c1ccc(C#Cc2cnn3c(C4CC4)cc(-c4ccc(Cl)cc4)nc23)s1 [Example 318, 5-[5-(4-Chloro-phenyl)-7-cyclopropyl-pyrazolo[1,5-a]pyrimidin-3-ylethynyl]-thiophene-2-sulfonic acid (2-pyridin-4-yl-ethyl)-amide] |

Second part, the molecule before the results:

| Compound | Ki (mGlu2 receptor) | melting point |
| --- | --- | --- |
| NS(=O)(=O)c1cccc(C#Cc2cnn3c(C(F)(F)F)cc(-c4ccc(C(F)(F)F)cc4)nc23)c1 [Example 1, 3-[7-Trifluoromethyl-5-(4-trifluoromethyl-phenyl)-pyrazolo[1,5-a]pyrimidin-3-ylethynyl]-benzenesulfonamide] | 2 nM | 243 °C |
| NS(=O)(=O)c1ccc(C#Cc2cnn3c(C4CC4)cc(-c4ccc(Cl)c(Cl)c4)nc23)s1 [Example 86, 5-[7-Cyclopropyl-5-(3,4-dichloro-phenyl)-pyrazolo[1,5-a]pyrimidin-3-ylethynyl]-thiophene-2-sulfonic acid amide] | 3 nM | 213 to 214 °C |
| CC(CO)(CO)NS(=O)(=O)c1cncc(C#Cc2cnn3c(C(F)(F)F)cc(-c4ccc(Cl)c(Cl)c4)nc23)c1 [Example 91, 5-[5-(3,4-Dichloro-phenyl)-7-trifluoromethyl-pyrazolo[1,5-a]pyrimidin-3-ylethynyl]-pyridine-3-sulfonic acid (2-hydroxy-1-hydroxymethyl-1-methyl-ethyl)-amide] | 4 nM | – |
| CN1CCN(S(=O)(=O)c2ccc(C#Cc3cnn4c(C(F)(F)F)cc(-c5ccc(C(F)(F)F)cc5)nc34)s2)CC1 [Example 157, 3-[5-(4-Methyl-piperazine-1-sulfonyl)-thiophen-2-ylethynyl]-7-trifluoromethyl-5-(4-trifluoromethyl-phenyl)-pyrazolo[1,5-a]pyrimidine] | 8 nM | 250 °C |
| NS(=O)(=O)c1ccc(C#Cc2ncn3c(C(F)(F)F)cc(-c4ccc(C(F)(F)F)cc4)nc23)cc1 [Example 178, 4-[4-Trifluoromethyl-2-(4-trifluoromethyl-phenyl)-imidazo[1,5-a]pyrimidin-8-ylethynyl]-benzenesulfonamide] | 8 nM | 290 °C |
| NS(=O)(=O)c1ccc(C#Cc2ncn3c(C(F)(F)F)cc(-c4ccc(C(F)(F)F)cc4)nc23)s1 [Example 179, 5-[4-Trifluoromethyl-2-(4-trifluoromethyl-phenyl)-imidazo[1,5-a]pyrimidin-8-ylethynyl]-thiophene-2-sulfonic acid amide] | 1 nM | 255 °C |
| NS(=O)(=O)c1cc(C#Cc2cnc3c(C(F)(F)F)cc(-c4ccc(C(F)(F)F)cc4)cn23)c(F)cc1F [Example 180, 2,4-Difluoro-5-[8-trifluoromethyl-6-(4-trifluoromethyl-phenyl)-imidazo[1,2-a]pyridin-3-ylethynyl]-benzenesulfonamide] | 9 nM | 306 to 307 °C |
| Nc1ccc(C#Cc2cnn3ccc(-c4ccc(C(F)(F)F)cc4)nc23)cn1 [Example 310, 5-[5-(4-Trifluoromethyl-phenyl)-pyrazolo[1,5-a]pyrimidin-3-ylethynyl]-pyridin-2-ylamine] | – | 213 to 214 °C |
